Measured values: PubChem BioAssay (NCI)
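The compound was tested at five concentrations on cells cultured in 96-well plates, with a 48-hour exposure period. The concentration for full growth arrest is given as TGI.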

Assays:
Assay in all cases: inhibition of tumour cell growth, NCI panel, 48 h
A498 renal = tested on: A498 renal
SW-620 colon = tested on: SW-620 colon
MCF7 breast = tested on: MCF7 breast
HS 578T breast = tested on: HS 578T breast
KM12 colon = tested on: KM12 colon

Row | SMILES | TGI (A498 renal) | TGI (SW-620 colon) | TGI (MCF7 breast) | TGI (HS 578T breast) | TGI (KM12 colon)
1 | CC(=O)Oc1ccc2cc(-c3ccc(OC(C)=O)c(OC(C)=O)c3)c(=O)oc2c1 | > 100 µM | > 100 µM | > 100 µM | > 100 µM | 61.3 µM
2 | CC(C(=O)n1ccnc1)N1c2ccccc2Sc2ccccc21 (stereo not given) | > 100 µM | > 100 µM | > 100 µM | > 100 µM | > 100 µM
3 | CCOC(=O)C(NC(=O)CC)(Nc1ccc(F)cc1F)C(F)(F)F (stereo not given) | > 100 µM | > 100 µM | – | > 100 µM | –
4 | CCCCCCCCCCOCCOCCOCCOCCCCC(O)CCCCCCCC1=C[C@H](C)OC1=O (stereo not given in full) | 26.5 µM | 29.5 µM | 20 µM | 31.1 µM | 23.9 µM
5 | Nc1cc(Cl)ccc1SSc1ccc(Cl)cc1N | – | 15 µM | 15.7 µM | 46.7 µM | 24.6 µM
6 | COC(=O)/N=[N+](\[O-])C(c1ccccc1)c1ccccc1 | > 100 µM | > 100 µM | > 100 µM | > 100 µM | > 100 µM
7 | CC1=CC(=O)N(n2c(-c3ccccc3)n[nH]c2=O)C1=O | – | > 100 µM | > 100 µM | > 100 µM | > 100 µM
8 | CN(C)c1ccc(/C=C(\NC(=O)c2ccccc2)C(=O)Nc2cccc(C(=O)NCCCO)c2)cc1 | > 100 µM | > 100 µM | > 100 µM | > 100 µM | > 100 µM
9 | NC(=O)Cn1c(=O)oc2cc(C(=O)CN3CCOCC3)ccc21 | > 100 µM | > 100 µM | > 100 µM | > 100 µM | > 100 µM
10 | CC1=CC(=O)N(n2c(Cc3ccc(Cl)cc3)n[nH]c2=O)C1=O | > 100 µM | > 100 µM | > 100 µM | > 100 µM | > 100 µM
11 | CN(C)CC1CCC/C(=C\c2ccccc2)C1=O (stereo not given) | 31.2 µM | 3.07 µM | 2.18 µM | 9.87 µM | 2.59 µM
12 | Cc1ccccc1Nc1nc(NNC(=O)Cc2ccccc2)nc(NNC(=O)c2ccncc2)n1 | – | – | > 10 µM | > 10 µM | > 10 µM
13 | CCCCC1(O)CC2CC1C(C)C2(C)C (stereo not given) | – | > 100 µM | > 100 µM | > 100 µM | > 100 µM
14 | COc1cc(C2c3cc4c(cc3OC(NCCO)C2C)OCO4)cc(OC)c1O (stereo not given) | – | > 100 µM | > 100 µM | – | > 100 µM
15 | CC(C)(C)[Si](C)(C)OCC1OC(n2ccc(=O)[nH]c2=O)C(O[Si](C)(C)C(C)(C)C)[C@]12O[C@@H]2CO (stereo not given in full) | 38.7 µM | 58.7 µM | 38.2 µM | – | 35 µM
16 | C/C=C\C(CC(=O)OC)CC(=O)N(CCC1CN(S(=O)(=O)C(F)(F)F)c2ccccc21)Cc1ccc(OC)cc1OC (stereo not given) | > 100 µM | > 100 µM | > 100 µM | – | > 100 µM
17 | O=[N+]([O-])C(/C=C(\Cl)[N+](=O)[O-])=C(N1CCCCC1)N1CCCCC1 | 93.3 µM | – | 18.9 µM | > 100 µM | > 100 µM
18 | Cc1cc2c(cc1Cl)SC(NNC1=NCCN1)=NS2(=O)=O | > 10 µM | > 10 µM | – | > 10 µM | > 10 µM
19 | C=CC1(c2ccc3ccccc3c2)OCC(CC)O1 (stereo not given) | – | > 100 µM | > 100 µM | 77 µM | > 100 µM
20 | O=C1CC2CC(CC3(CO3)C2)C1F (stereo not given) | > 100 µM | – | > 100 µM | > 100 µM | > 100 µM
21 | Cc1ccc(C(=O)Oc2ccc(/C=C3\CCC/C(=C\c4ccc(OC(=O)c5ccc(C)cc5)cc4)C3=O)cc2)cc1 | – | > 100 µM | > 100 µM | > 100 µM | > 100 µM
22 | COC(=O)[C@]12CSC[C@H]1C[C@H](c1cccc3ccccc13)N2 | > 100 µM | > 100 µM | > 100 µM | – | > 100 µM
23 | O=C1[C@@H](O)[C@@H]2CCCC[C@@]23CCCN13 | > 100 µM | – | > 100 µM | > 100 µM | > 100 µM
24 | O=C(NCCCN(CCCCN(CCCNC(=O)c1cc(S(=O)(=O)O)cc(O)c1O)C(=O)c1cc(S(=O)(=O)O)cc(O)c1O)C(=O)c1cc(S(=O)(=O)O)cc(O)c1O)c1cc(S(=O)(=O)O)cc(O)c1O | > 100 µM | > 100 µM | – | > 100 µM | > 100 µM
25 | COc1ccc2c(c1OC)C(=O)N/C2=C\c1c(CCN(C)C)cc2c(c1OC)OCO2 | – | > 100 µM | > 100 µM | > 100 µM | > 100 µM
26 | CCOc1cccc(-c2cc(=O)c3cc4c(cc3[nH]2)OCO4)c1 | > 100 µM | > 100 µM | > 100 µM | 13.5 µM | –
27 | CC(=O)n1[nH]c(=O)n(-c2ccccc2)c1=O | – | > 100 µM | > 100 µM | > 100 µM | > 100 µM
28 | C=CCCCC1(C)CCNC1=S (stereo not given) | > 100 µM | > 100 µM | > 100 µM | > 100 µM | –
29 | Cc1cc(C)nc(NS(=O)(=O)c2ccc(NC(=O)NC(F)(F)F)cc2)n1 | > 100 µM | > 100 µM | – | > 100 µM | –
